Source: US4310532A, “Methods and piperidinyl-alkyl-benzamide composition for inhibiting H2 histamine receptors” (The University of Toledo, priority 1980, dated 1982)
In brackets after ≈: the same amount, converted by molar mass. Like-named read-outs stand apart in the source and are kept apart here.

What was measured:
histamine H2 receptor [1] = assay: histamine H2 antagonist activity in vivo: block of histamine-stimulated gastric acid secretion in the lumen-perfused anesthetized rat; design: species or system rat (Sprague Dawley); conditions: urethane-anesthetized rat; antagonist 0.24 mg/kg rapid I.V.; histamine 0.13 μmol/kg/hr; compounds as hydrochloride salts
Description: Sprague Dawley rats weighing between 150-200 g were used for the evaluations. Perfusion was carried out with 5% glucose solution at 37° C. Administration of histamine and test compounds was carried out by rapid I.V. injection via cannulated jugular vein. Doses of 0.13 μmol/kg/hr. of histamine were used, and 0.24 mg/kg of antagonist test compound.

histamine H2 receptor [2] = target: T1, histamine H2 receptor (Cavia porcellus, UniProt P47747); assay: histamine H2 antagonism activity on the isolated guinea pig atrium (chronotropic response to histamine); type: cell-based, guinea pig (Hartley strain); conditions: experimental compound 10 μg/ml, histamine 0.05-2.5 μg/ml
T1 construct: histamine chronotropic response
Description: The histamine H2 antagonism activity of these piperidinyl-alkyl-benzamide compounds was tested on the isolated guinea pig atrium. The atria from Hartley strain guinea pigs were dissected and suspended in 25 ml of McEwen's solution and attached to a transducer. Spontaneous atrial rate was determined from the recorder tracing. Chronotropic responses to increasing concentrations of histamine (0.05-2.5 μg/ml) were evaluated in the presence of placebo or experimental compound. Results are expressed in Table I as the ratio of concentration of histamine required to increase atrial rate by 50 beats/minute:concentration of histamine required to increase atrial rate by 50 beats/minute in the presence of experimental compound, 10 μg/ml.

isolated rat uterus = assay: block of the contractile response to histamine of the isolated rat uterus; type: cell-based, rat (Sprague Dawley, female); conditions: read-out: EC50 (concentration of experimental compound required to block the contractile effect of histamine by 50%)
Description: Further evaluation involved testing the ability of the piperidinyl-alkyl-benzamides to block the response to histamine by the isolated rat uterus. Female Sprague Dawley rats weighing approximately 150 g were injected with diethylstilbesterol (0.15 mg/rat) fifteen hours prior to sacrifice. […] The results are expressed as the % change in the contractile response to histamine relative to placebo-histamine evaluation in Table III.

histamine H2 receptor [3] = assay: histamine H2-receptor antagonist activity in standard pharmacological tests (Tables I, II and III); conditions: result in words
Description: The histamine H2 antagonism activity of these piperidinyl-alkyl-benzamide compounds was tested on the isolated guinea pig atrium. The atria from Hartley strain guinea pigs were dissected and suspended in 25 ml of McEwen's solution and attached to a transducer. Spontaneous atrial rate was determined from the recorder tracing. Chronotropic responses to increasing concentrations of histamine (0.05-2.5 μg/ml) were evaluated in the presence of placebo or experimental compound. […]
The piperidine-alkyl-benzamides, as their hydrochloride salts, were evaluated for histamine H2 antagonist activity, in vivo, by their ability to block the stimulation of acid secretion by histamine from the lumen-perfused anesthetized (urethane) rat preparation as described in Ash and Shield, Br. J. Pharmacol. Chemotherapy 27, 427 (1966) and Durant, et al., J. Med. Chem. 18, 905 (1975). […]
Further evaluation involved testing the ability of the piperidinyl-alkyl-benzamides to block the response to histamine by the isolated rat uterus. […] Contractile responses were evaluated after the addition of placebo; after the addition of experimental compounds; and after the addition of histamine (25 μg/ml). The results are expressed as the % change in the contractile response to histamine relative to placebo-histamine evaluation in Table III. […]
The product was evaluated according to Tables I, II, and III above.

[4] = isolated rat uterus, histamine 25 μg/ml, diethylstilbesterol-primed

T1 sequence (P47747 whole entry): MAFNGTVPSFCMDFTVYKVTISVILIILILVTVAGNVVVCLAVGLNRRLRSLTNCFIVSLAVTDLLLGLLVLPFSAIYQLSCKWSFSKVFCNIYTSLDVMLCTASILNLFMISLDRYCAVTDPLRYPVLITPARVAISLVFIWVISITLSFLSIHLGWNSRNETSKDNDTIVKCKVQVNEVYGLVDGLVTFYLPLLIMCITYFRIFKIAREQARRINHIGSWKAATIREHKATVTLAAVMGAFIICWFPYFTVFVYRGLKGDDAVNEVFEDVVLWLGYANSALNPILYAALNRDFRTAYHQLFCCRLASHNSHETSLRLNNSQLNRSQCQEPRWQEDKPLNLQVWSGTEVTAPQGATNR

| Compound | MEAN % INHIBITION OF GASTRIC ACID SECRETION (histamine H2 receptor [1]) [%] | HISTAMINE RATIO (concentration of histamine required to increase atrial rate by 50 beats/minute : same in the presence of experimental compound) (histamine H2 receptor [2]) | EC50 (isolated rat uterus; [4]) [µg/mL] | EC50 (isolated rat uterus; Rattus norvegicus) [µg/mL] | histamine H2-receptor antagonist activity (histamine H2 receptor [3]) |
| --- | --- | --- | --- | --- | --- |
| Cc1ccc(C(=O)NCC2CCNCC2)cc1 [Example 2, N-(4-piperidinylmethyl)-p-methylbenzamide] | 52 ± 5 | 0.004 | 0.31 (≈ 1.33 µM) | – | – |
| CN/C(=N/CCSCc1nc[nH]c1C)NC#N [Cimetidine, reference compound] | 78 ± 8 | 0.0025 | – | 0.3 (≈ 1.19 µM) | – |
| O=C(NCC1CCNCC1)c1ccccc1 [Example 1, N-(4-Piperidinylmethyl)benzamide] | 40 ± 6 | 0.005 | 0.38 (≈ 1.74 µM) | – | significant amount of histamine H2 --receptor antagonist activity |
